In PubChem BioAssay AID330 (DTP/NCI, 2004):
“And” between values parts separate entries of the source, which are not always exact repeats. Equal values may be shown once. Toxic doses and inconclusive results are not listed.

System: P388 leukemia ip, CD2F1 mice, survival T/C
Assay: NCI In Vivo Anticancer Drug Screen. Data for tumor model P388 Leukemia (intraperitoneal) in CD2F1 (CDF1) mice
Details: endpoint: median survival time, higher = longer survival
Method in brief: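 Mice carrying the transplanted tumor received test compound or vehicle. Survival was recorded in each group, and the value is the treated-group measurement divided by that of the vehicle-treated control group.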

[1] = dose: 6.25 mg/kg/injection, schedule: Q01DX005 (ip), vehicle: saline with Tween-80
[2] = dose: 12.5 mg/kg/injection, schedule: Q01DX005 (ip), vehicle: saline with Tween-80
[3] = dose: 25.0 mg/kg/injection, schedule: Q01DX005 (ip), vehicle: saline with Tween-80
[4] = dose: 50.0 mg/kg/injection, schedule: Q01DX005 (ip), vehicle: saline with Tween-80
[5] = dose: 100.0 mg/kg/injection, schedule: Q01DX005 (ip), vehicle: saline with Tween-80
[6] = dose: 200.0 mg/kg/injection, schedule: Q01DX005 (ip), vehicle: saline with Tween-80
[7] = dose: 25.0 mg/kg/injection, schedule: Q04DX003 (ip), vehicle: Klucel (hydroxypropylcellulose) (HPC)
[8] = dose: 100.0 mg/kg/injection, schedule: Q04DX003 (ip), vehicle: Klucel (hydroxypropylcellulose) (HPC)
[9] = dose: 50.0 mg/kg/injection, schedule: Q01DX009 (ip), vehicle: saline with Tween-80
[10] = dose: 60.0 mg/kg/injection, schedule: Q01DX005 (ip), vehicle: saline with Tween-80
[11] = dose: 120.0 mg/kg/injection, schedule: Q01DX005 (ip), vehicle: saline with Tween-80
[12] = dose: 50.0 mg/kg/injection, schedule: Q01DX009 (ip), vehicle: saline
[13] = dose: 100.0 mg/kg/injection, schedule: Q01DX009 (ip), vehicle: saline
[14] = dose: 200.0 mg/kg/injection, schedule: Q01DX009 (ip), vehicle: saline
[15] = dose: 100.0 mg/kg/injection, schedule: Q04DX003 (ip), vehicle: saline with Tween-80
[16] = dose: 100.0 mg/kg/injection, schedule: Q01DX009 (ip), vehicle: Klucel (hydroxypropylcellulose) (HPC)
[17] = dose: 200.0 mg/kg/injection, schedule: Q01DX009 (ip), vehicle: Klucel (hydroxypropylcellulose) (HPC)

In the case of Nc1ccc(N=Nc2ccc3cc4ccc(N=Nc5ccc(N)nc5N)cc4nc3c2)c(N)n1, the T/C [1] is reported as 92 % of control, the T/C [2] is reported as 100 % of control and 106 % of control and the T/C [3] is reported as 100 % of control and 116 % of control. The T/C [4] was 95 % of control, the T/C [5] was 106 % of control and the T/C [6] was 109 % of control.
CC(C(=O)S)C(O)(c1ccccc1)c1ccccc1 (stereo not given) was tested, and the T/C [7] was 98 % of control, the T/C (dose: 50.0 mg/kg/injection, schedule: Q04DX003 (ip), vehicle: Klucel (hydroxypropylcellulose) (HPC)) was 101 % of control and the T/C [8] was 107 % of control and 93 % of control.
CC1(C)O[C@H]2CC(=O)OC[C@@]23[C@H]1CC(=O)[C@@]1(C)C2=CCC(c4ccoc4)[C@]2(C)CC[C@@H]13 (stereo not given in full) was tested, and the T/C (dose: 3.12 mg/kg/injection, schedule: Q01DX005 (ip), vehicle: distilled water + Tween-80) was 95 % of control, the T/C (dose: 6.25 mg/kg/injection, schedule: Q01DX005 (ip), vehicle: distilled water + Tween-80) was 99 % of control and the T/C (dose: 12.5 mg/kg/injection, schedule: Q01DX005 (ip), vehicle: distilled water + Tween-80) was 102 % of control. For the same molecule, the T/C (dose: 25.0 mg/kg/injection, schedule: Q01DX005 (ip), vehicle: distilled water + Tween-80) was 116 % of control and the T/C (dose: 50.0 mg/kg/injection, schedule: Q01DX005 (ip), vehicle: distilled water + Tween-80) was 92 % of control.
For CCOC1=NC2C(O1)C1C3C2C13 (stereo not given), the T/C [4] was 103 % of control, the T/C [5] was 105 % of control and the T/C [6] was 105 % of control.
In the case of C[C@]12CC[C@H]3[C@@H](CC[C@]4(O)C[C@@H](O)CC[C@]34CO)[C@@]1(O)CC[C@@H]2C1=CC(=O)OC1, the T/C (dose: 25.0 mg/kg/injection, schedule: Q04DX003 (ip), vehicle: suspension in saline) is reported as 97 % of control, the T/C (dose: 50.0 mg/kg/injection, schedule: Q04DX003 (ip), vehicle: suspension in saline) is reported as 98 % of control and the T/C (dose: 100.0 mg/kg/injection, schedule: Q04DX003 (ip), vehicle: suspension in saline) is reported as 97 % of control. For the same molecule, the T/C (dose: 200.0 mg/kg/injection, schedule: Q04DX003 (ip), vehicle: suspension in saline) was 100 % of control.
In the case of O=[N+]([O-])c1ccc2c(ccn2C2OCC(O)C(O)C2O)c1 (stereo not given), the T/C [9] is reported as 94 % of control, the T/C (dose: 100.0 mg/kg/injection, schedule: Q01DX009 (ip), vehicle: saline with Tween-80) is reported as 108 % of control and the T/C (dose: 200.0 mg/kg/injection, schedule: Q01DX009 (ip), vehicle: saline with Tween-80) is reported as 106 % of control.
For C=C1C(=O)C(CCCC)=C(CCC)C1O (stereo not given), the T/C [10] was 100 % of control and the T/C [11] was 107 % of control.
COC(=O)C1NC(C(O)C(O)C(O)C(O)CO)SC1(C)C (stereo not given) was tested, and the T/C [12] was 94 % of control, the T/C [13] was 102 % of control and the T/C [14] was 100 % of control.
For c1ccc(C2C(c3ccccn3)C(c3ccccn3)C2c2ccccn2)nc1 (stereo not given), the T/C (dose: 100.0 mg/kg/injection, schedule: Q01DX001 (ip), vehicle: Klucel (hydroxypropylcellulose) (HPC)) was 95 % of control, the T/C (dose: 200.0 mg/kg/injection, schedule: Q01DX001 (ip), vehicle: Klucel (hydroxypropylcellulose) (HPC)) was 94 % of control and the T/C (dose: 400.0 mg/kg/injection, schedule: Q01DX001 (ip), vehicle: Klucel (hydroxypropylcellulose) (HPC)) was 95 % of control.
With COc1ccccc1C1=Nc2ccccc2N=C(c2ccccc2O)C1 the T/C [10] was 107 % of control, the T/C [11] was 100 % of control and the T/C (dose: 240.0 mg/kg/injection, schedule: Q01DX005 (ip), vehicle: saline with Tween-80) was 90 % of control.
In the case of O=C1NC(=O)c2cc3ccccc3cc21, the T/C [4] is reported as 87 % of control, the T/C [5] is reported as 87 % of control and the T/C [6] is reported as 91 % of control.
For COC1(OC)CC(CCl)OC1(OC)OC (stereo not given), the T/C (dose: 60.0 mg/kg/injection, schedule: Q01DX005 (ip), vehicle: saline) was 103 % of control, the T/C (dose: 120.0 mg/kg/injection, schedule: Q01DX005 (ip), vehicle: saline) was 103 % of control and the T/C (dose: 240.0 mg/kg/injection, schedule: Q01DX005 (ip), vehicle: saline) was 101 % of control.
In the case of Cc1cc(N)c(C)c(C)c1O, the T/C (dose: 25.0 mg/kg/injection, schedule: Q01DX009 (ip), vehicle: saline with Tween-80) is reported as 113 % of control, the T/C (dose: 25.0 mg/kg/injection, schedule: Q04DX003 (ip), vehicle: saline with Tween-80) is reported as 100 % of control and the T/C [9] is reported as 118 % of control. For the same molecule, the T/C (dose: 50.0 mg/kg/injection, schedule: Q04DX003 (ip), vehicle: saline with Tween-80) was 110 % of control and the T/C [15] was 110 % of control.
In the case of CCN(CC)CC.COC(=O)NC#N.[CH-]1CCCCC1.[CH-]1CCCCC1.[CH-]1CCCCC1.[Cl-].[Sn+4], the T/C (dose: 3.12 mg/kg/injection, schedule: Q01DX005 (ip), vehicle: saline with Tween-80) is reported as 104 % of control and the T/C [1] is reported as 98 % of control.
In the case of COC(=O)/N=C1\C(=O)C=CC(O)=C1C(N)=O, the T/C [1] is reported as 90 % of control, the T/C [2] is reported as 94 % of control and the T/C [3] is reported as 92 % of control.
With O=C(Nc1ccccc1)Sc1nc2ccccc2s1 the T/C [12] was 102 % of control, the T/C [13] was 104 % of control and the T/C [14] was 104 % of control.
N#CN=[N+]([O-])c1ccccc1Br was tested, and the T/C (dose: 3.12 mg/kg/injection, schedule: Q01DX009 (ip), vehicle: Klucel (hydroxypropylcellulose) (HPC)) was 98 % of control, the T/C (dose: 6.25 mg/kg/injection, schedule: Q01DX009 (ip), vehicle: Klucel (hydroxypropylcellulose) (HPC)) was 100 % of control and the T/C (dose: 6.25 mg/kg/injection, schedule: Q04DX003 (ip), vehicle: Klucel (hydroxypropylcellulose) (HPC)) was 100 % of control. For the same molecule, the T/C (dose: 12.5 mg/kg/injection, schedule: Q01DX009 (ip), vehicle: Klucel (hydroxypropylcellulose) (HPC)) was 114 % of control, the T/C (dose: 12.5 mg/kg/injection, schedule: Q04DX003 (ip), vehicle: Klucel (hydroxypropylcellulose) (HPC)) was 91 % of control and the T/C [7] was 87 % of control.
For O=c1oc(-c2cccc(I)c2)ns1, the T/C [16] was 111 % of control and the T/C [17] was 114 % of control.
In the case of Nc1ccccc1-n1nc2ccc3ccccc3c2n1, the T/C [15] is reported as 100 % of control, the T/C (dose: 200.0 mg/kg/injection, schedule: Q04DX003 (ip), vehicle: saline with Tween-80) is reported as 95 % of control and the T/C (dose: 400.0 mg/kg/injection, schedule: Q04DX003 (ip), vehicle: saline with Tween-80) is reported as 95 % of control.
In the case of O=C(Nc1ccccc1)C1C(=O)C(=O)N(c2ccccc2)C1=O (stereo not given), the T/C (dose: 50.0 mg/kg/injection, schedule: Q01DX009 (ip), vehicle: Klucel (hydroxypropylcellulose) (HPC)) is reported as 107 % of control, the T/C [16] is reported as 101 % of control and the T/C [17] is reported as 99 % of control.
For COC(=O)C1c2c(C)cc3n2C(C=C(C)C3)C1C(=O)OC (stereo not given), the T/C [8] was 100 % of control, the T/C (dose: 200.0 mg/kg/injection, schedule: Q04DX003 (ip), vehicle: Klucel (hydroxypropylcellulose) (HPC)) was 105 % of control and the T/C (dose: 400.0 mg/kg/injection, schedule: Q04DX003 (ip), vehicle: Klucel (hydroxypropylcellulose) (HPC)) was 95 % of control.
With N#CCCN(N)S(=O)(=O)c1ccccc1 the T/C (dose: 50.0 mg/kg/injection, schedule: Q01DX005 (ip), vehicle: Klucel (hydroxypropylcellulose) (HPC)) was 99 % of control, the T/C (dose: 100.0 mg/kg/injection, schedule: Q01DX005 (ip), vehicle: Klucel (hydroxypropylcellulose) (HPC)) was 99 % of control and the T/C (dose: 200.0 mg/kg/injection, schedule: Q01DX005 (ip), vehicle: Klucel (hydroxypropylcellulose) (HPC)) was 98 % of control.
For CNc1ccccc1Br, the T/C [4] was 100 % of control, the T/C [5] was 100 % of control and the T/C [6] was 100 % of control.
O=CNNc1nn2cnnc2c2ccccc12 was tested, and the T/C [12] was 97 % of control, the T/C [13] was 94 % of control and the T/C [14] was 102 % of control.
For CC(C)C[CH2][Ge]([CH2]CC(C)C)([CH2]CC(C)C)[CH2]CC(C)C, the T/C (dose: 100.0 mg/kg/injection, schedule: Q01DX001 (ip), vehicle: saline with Tween-80) was 100 % of control, the T/C (dose: 200.0 mg/kg/injection, schedule: Q01DX001 (ip), vehicle: saline with Tween-80) was 94 % of control and the T/C (dose: 400.0 mg/kg/injection, schedule: Q01DX001 (ip), vehicle: saline with Tween-80) was 96 % of control.
With C[n+]1c(-c2ccc(/C=N/Nc3ccnc(N/N=C/c4ccc(-c5cn6ccccc6[n+]5C)cc4)n3)cc2)cn2ccccc21 the T/C (dose: 30.0 mg/kg/injection, schedule: Q01DX005 (ip), vehicle: saline with Tween-80) was 150 % of control and the T/C [10] was 88 % of control.
